Laboratory results from patent US6686353B1, “Diarylalkyl cyclic diamine derivatives as chemokine receptor antagonists” (Teijin Intellectual Property Center Limited, priority 1996, dated 2004).
Where two headings read alike, the source gives them in different places.

How the values were obtained:
[1] = molecular target: T1, human MCP-1 binding to THP-1 cells (Homo sapiens, UniProt P41597); test: Inhibition of [125I]-labeled human MCP-1 binding to THP-1 cells; settings: at 100 μM test compound; read-out: inhibitory activity (inhibition of human MCP-1 binding to THP-1 cells)
T1 construct: endogenous in cells; host or cells: THP-1 (human monocytic leukemia cell line), whole cells
T1 sequence (P41597 1-360 isoform P41597-2): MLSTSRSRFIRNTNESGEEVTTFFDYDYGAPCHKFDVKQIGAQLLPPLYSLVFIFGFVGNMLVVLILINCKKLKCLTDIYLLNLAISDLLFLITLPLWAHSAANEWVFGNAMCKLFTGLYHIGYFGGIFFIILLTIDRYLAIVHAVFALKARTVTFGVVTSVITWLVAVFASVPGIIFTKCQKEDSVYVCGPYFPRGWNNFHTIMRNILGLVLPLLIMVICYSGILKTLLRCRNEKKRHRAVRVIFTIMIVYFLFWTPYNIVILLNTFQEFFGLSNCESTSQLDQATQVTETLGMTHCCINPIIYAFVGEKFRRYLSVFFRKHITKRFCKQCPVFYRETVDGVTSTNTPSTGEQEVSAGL
Text: Measurement of Inhibition of MCP-1 Binding to TP-1 Cells
1. Construction of Recombinant Baculovirus Carrying the Human MCP-1 Gene
Based on the previously published human MCP-1 gene sequence (for example T. Yoshimura et al., Febs Letters, 1989, 244, 487-493), two synthetic DNA primers (5′-[…]-3′ and 5′-[…]-3′) flanked by restriction enzyme sites were used to amplify a DNA fragment from cDNA derived from human endothelial cells (purchased from Kurabow Co.); the amplified fragment was cut with the restriction enzymes (PstI and XbaI), ligated into a transfer vector pVL1393 (Invitrogen Co.), and the resulting vector was co-transfected along with infectious baculovirus into Sf-9 insect cells and the supernatant was plaque assayed to yield human MCP-1 gene baculovirus recombinant.
2. Synthesis of [^125I]-labeled Human MCP-1 Expressed in Baculovirus
Using the method of K. Ishii et al. (Biochem Biophys Research Communications 1995, 206, 955-961), 5×10^6 Sf-6 insect cells was infected with 5×10^7 PFU (plaque forming units) of the above human MCP-1 recombinant baculovirus and cultured for 7 days in Ex-Cell 401 medium. The culture supernatant was affinity purified using a heparin Sepharose column (Pharmacia Co.) and then further purified using reverse phase HPLC (Vydac C18 column) to prepare purified human MCP-1. The purified human MCP-1 was protein labeled by Amersham Co. using the Bolton Hunter method to yield [^125I]-labeled baculovirus expressed human MCP-1 (specific activity 2000 Ci/mmol).
3. Measurement of Inhibition of Binding of [^125I]-labeled Baculovirus Expressed Human MCP-1 to THP-1 Cells
(§1) Human monocytic leukemia cell line THP-1 was suspended in assay buffer (RPMI-1640 (Gibco-BRL Co.) containing 0.1% BSA and 25 mM HEPES adjusted to pH 7.4) to give a cell suspension of a concentration of 1×10^7 cells/mL. The test compound was diluted in the assay buffer and used as the test compound solution. [^125I]-labeled human MCP-1 described above was diluted in assay buffer to 1 mCi/mL and used as the labeled ligand solution. In a 96 well filter plate (Millipore Co.), 25 μL of test compound solution, 25 μL of labeled ligand solution and 50 μL of cell suspension were aliquoted into each well in this order, stirred (total reaction volume 100 μL), and incubated for one hour at 18° C.
(§2) After the reaction, the reaction solution was filtered, and the filter was washed twice with 200 μL of cold PBS (200 μL of cold PBS was added and then filtered). The filter was removed and placed in an RIA tube (Iuchi Seieido Co.,), and the radioactivity retained by the cells on the filter were measured using a gamma counter (Aloka Co.).
To calculate the ability of test compound to inhibit binding of human MCP-1 to THP-1 cells, non-specific binding determined by adding 100 ng of unlabeled human MCP-1 in place of the test compound was subtracted, while the counts with no test compound added was taken as 100%.
Inhibition (%)=(1−(A−B)/(C−B))×100
(A, counts with test compound added; B, counts with 100 ng of unlabeled human […] added; C, counts with [^125I]-labeled human MCP-1 added).

[2] = molecular target: T2, human MIP-1α binding to THP-1 cells (Homo sapiens, UniProt P32246); test: Inhibition of MIP-1α binding to THP-1 cells; settings: at 100 μM test compound; read-out: inhibitory activity (inhibition of human MIP-1α binding to THP-1 cells)
T2 construct: endogenous in cells; host or cells: THP-1 (human monocytic leukemia cell line), whole cells
T2 sequence (P32246 1-355): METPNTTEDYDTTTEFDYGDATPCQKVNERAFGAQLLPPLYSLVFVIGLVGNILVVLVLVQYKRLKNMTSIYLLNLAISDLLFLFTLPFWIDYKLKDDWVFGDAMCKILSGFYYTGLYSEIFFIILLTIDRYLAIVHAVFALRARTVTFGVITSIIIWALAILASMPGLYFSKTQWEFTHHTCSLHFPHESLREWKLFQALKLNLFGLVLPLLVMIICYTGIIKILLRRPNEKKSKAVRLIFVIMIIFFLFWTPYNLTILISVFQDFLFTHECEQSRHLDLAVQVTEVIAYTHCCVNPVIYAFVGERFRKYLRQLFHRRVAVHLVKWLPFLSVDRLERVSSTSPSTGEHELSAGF
Procedure: Measurement of Inhibition of MIP-1α Binding to THP-1 Cells by Test Compounds
as §1, with “Iodinated” for “[^125I]-labeled”, “MIP-1α (DuPont NEN Co.)” for “MCP-1 described above”, “250 nCi/mL” for “1 mCi/mL”, “the” for “the labeled”, “solution.” for “solution,”
as §2, with “Co.)” for “Co.,),”
To calculate the ability of test compounds to inhibit binding of human MIP-1α to THP-1 cells, non-specific binding determined by adding 100 ng of unlabeled human MIP-1α (Peprotech Co.) in place of the test compound was subtracted, while the counts with no test compound added was taken as 100%. […]

[3] = tested on: THP-1 cells; test: Inhibition of cell chemotaxis caused by MCP-1 (THP-1 cells); type: cell-based, human; settings: MCP-1 20 ng/mL, 37° C. 2 hr, read-out: 50% inhibition concentration (IC50) of cell migration
Procedure: Measurement of Inhibition of Cell Chemotaxis
In order to determine the inhibition of call chemotaxis by the compounds of this invention, we measured call chemotaxis caused by monocyte chemotactic factor MCP-1 using the human monocytic leukemia cell line THP-1 as the chemotactic cell according to the method of Fall et al. (J. Immunol. Methods, […], 33, 239-247). 2×10^6 cells/mL of THP-1 cells (suspended in RPMI-1640 (Flow Laboratories Co.) +10% FCS) was placed in the upper chamber (200 μL) of a 96 well micro-chemotaxis chamber (Neuroprobe, registered tradename), and human recombinant MCP-1 in a same solution (Peprotech Co.) at a final concentration of 20 ng/mL was placed in the lower chamber, with a polycarbonate filter (PVP-free, Neuroprobe; registered tradename) placed between the two chambers, These were incubated at 37° C. for 2 hr in 5% CO2.
The filter was removed, and the cells which had migrated to the underside of the filter was fixed, stained using Diff Quick (Kokusai Shiyaku Co.) and then quantitated using a plate reader (Molecular Device Co.) at a wavelength of 550 nm to determine the index of cell migration as a mean of 3 wells, In addition. test compounds were placed in the upper chamber along with THP-1, and the inhibition of cell migration (inhibition IC50 (μM)) was determined. […]

[4] = molecular target: T3, MCP-1 receptor (Homo sapiens, UniProt P41597); test: Inhibition of binding of [125I]-labeled human MCP-1 to cells expressing the MCP-1 receptor (293-EBNA transfectant); settings: dose dependent inhibition; 293-EBNA cells expressing MCP-1 receptor; read-out: 50% inhibitory concentration (IC50), MCP-1 binding to MCP-1 receptor expressing cells
T3 construct: expressed in transfected cells
T3 sequence (P41597 1-360 isoform P41597-2): T1 sequence (P41597 1-360 isoform P41597-2)
Text: Measurement of Inhibition of Binding of [^125I]-labeled Human MCP-1 to Cells Expressing the MCP-1 Receptor
1. Derivation of Cells Expressing the MCP-1 Receptor
cDNA fragment containing the MCP-1 receptor reported by S. Yamagami et al., Biochemical Biophysical Research Communications 1994, 202, 1156-1162) was cloned into the expression plasmid pCEP4 (Invitrogen Co.) at the NotI site, and the plasmid obtained was transfected into the human kidney epithelial cell line 293-EBNA using the Lipofectamine reagent (Gibco-BRL Co.). The cells were cultured in the presence of the selective agent (Hygromycin), and a stably expressing transfectant line was obtained. The express ion of the receptor was confirmed by binding of [^125I]-labeled human MCP-1.
2. Measurement of Inhibition of Binding of [^125I]-labeled Baculovirus Expressed Human MCP-1 to the MCP-1 Receptor Expressing Cells
The MCP-1 receptor expressing cells on tissue culture dishes were scraped using a call scraper and suspended in assay buffer (D-MEM(Gibco-BRL Co.) containing 0.1% BSA and 25 mM HEPES adjust ed to pH 7.4) to give a cell suspension of a concentration of 6×10^6 cellls/mL. The test compound was diluted in the assay buffer to concentrations of […], and 100 μM. The remainder of the procedure was as described in Example 163.

Compound	inhibition at 100 µM [1]	other results
NC(=O)c1ccc(CN2CCCN(CCC(c3ccccc3)c3ccccc3)CC2)cc1 [Compound No. 55, 1-(3,3-Diphenylpropyl)-4-(4-carbamoylbenzyl)homopiperazine]	> 20%	–
OC(CCN1CCCN(Cc2ccc(Cl)cc2)CC1)(c1ccccc1)c1ccccc1 [Compound No. 107, 1-(3-Hydroxy-3,3-diphenylpropyl)-4-(4-chlorobenzyl)homopiperazine]	> 20%	inhibition at 100 µM [2]: > 20%
CS(=O)(=O)c1ccc(CN2CCCN(CCC(O)(c3ccc(O)cc3)c3ccc(O)cc3)CC2)cc1 [Compound No. 119, 1-[3,3-bis(4-Hydroxyphenyl)-3-hydroxypropyl]-4-[4-(methylsulfonyl)benzyl]homopiperazine]	> 20%	–
CS(=O)(=O)c1ccc(CN2CCCN(CCC(O)(c3ccco3)c3ccco3)CC2)cc1 [Compound No. 129, 1-[3,3-Di(2-furyl)-3-hydroxypropyl]-4-[4-(methylsulfonyl)benzyl]homopiperazine]	> 20%	–
Cn1cccc1C(O)(CCN1CCCN(Cc2ccc(S(C)(=O)=O)cc2)CC1)c1ccccc1 (centres unmarked) [Compound No. 136, 1-[3-Hydroxy-3-(1-methyl-2-pyrrolyl)-3-phenylpropyl]-4-[4-(methylsulfonyl)benzyl]homopiperazine]	> 20%	–
CC(=O)Nc1cccc(C(O)(CCN2CCCN(Cc3ccc(S(C)(=O)=O)cc3)CC2)c2ccccc2)c1 (centres unmarked) [Compound No. 162, 1-[3-(3-Acetylaminophenyl)-3-hydroxy-3-phenylpropyl]-4-[4-(methylsulfonyl)benzyl]homopiperazine]	> 20%	–
CC(C)(C)OC(=O)N1CCCN(CCC(O)(c2ccccc2)c2cccc(O)c2)CC1 (centres unmarked) [Compound No. 294, 1-(tert-butyloxycarbonyl)-4-[3-hydroxy-3-(3-hydroxyphenyl)-3-phenylpropyl]homopiperazine]	> 20%	–
Oc1cccc(C(O)(CCN2CCCNCC2)c2ccccc2)c1 (centres unmarked) [Compound No. 295, 1-[3-hydroxy-3-(3-hydroxyphenyl)-3-phenylpropyl]homopiperazine]	> 20%	–
CC(=O)N1CCCN(CCC(O)(c2ccccc2)c2cccc(O)c2)CC1 (centres unmarked) [Compound No. 296, 1-acetyl-4-[3-hydroxy-3-(3-hydroxyphenyl)-3-phenylpropyl]homopiperazine]	> 20%	–
CS(=O)(=O)c1ccc(CN2CCCN(CCC(c3ccccc3)c3ccccc3)CC2)cc1 [compound 36]	> 20%	IC50 ([3]; Homo sapiens): 9 µM; IC50 [4]: 17 µM
c1ccc(C(CCN2CCCN(Cc3ccncc3)CC2)c2ccccc2)cc1 [compound 240]	–	IC50 [3]: 30 µM
